# Measurements: patent US20210002650A1, “COMPOSITIONS AND METHODS FOR TREATING ALZHEIMER'S DISEASE” (University of Virginia Patent Foundation, priority 2019, published 2021)
# Structures can show the parent of a compound that is named as a salt.
# Tests used:
# [1] = tested on: primary mouse cortical neurons; assay: AβO-induced neuronal cell cycle re-entry (CCR), cyclin D1/NeuN/MAP2 triple immunofluorescence; format: cell-based; parameters: induction of CCR in primary neuron cultures: dose or concentration left out as unconfirmed
# Method: Cortical neuron cultures derived from E17/18 wild type C57/BL6 mouse embryos prepared and maintained as described previously. Cultures were maintained for 16-18 days prior to experimental manipulations.
# 20 μl aliquots were stored at −80° C. until ready to use. To prepare oligomers, an aliquot was dried in a speed vac for 3 hours, solubilized in 1 mM in dimethyl sulfoxide (Sigma, D2650-5X5ML), placed in a water bath sonicator for 5 minutes, and then supplemented with Neurobasal medium (GIBCO/Life Technologies, 21103-049) to yield a final peptide concentration of 100 μM. The solution was then placed on an orbiting rocker at 4° C. for 48 hours, after which it was centrifuged at 14,000×g in a tabletop microcentrifuge for 15 minutes to pellet large aggregates.
# All steps were performed at room temperature unless indicated otherwise. Primary mouse cortical neurons grown on #1.5 thickness, 12 mm round glass coverslips were rinsed once with ice-cold phosphate buffered saline (PBS), and then were fixed in 4% paraformaldehyde in PBS for 12 minutes. Following fixation, the cells were rinsed 3 times for 5 minutes each with ice cold PBS, permeabilized for 15 minutes with PBS containing 0.2% Triton X-100 (Fisher, 9002-93-1), and rinsed 3 times for 5 minutes each with PBS. Next, the cells were blocked with PBST (PBS supplemented with 2% bovine serum albumin (BSA; Roche, 03116956001); and 0.1% Tween 20 (Fisher, 9005-64-5) for 1 hour, after which they were labeled overnight with primary antibodies followed by secondary antibodies for 1 hour. Antibodies were diluted into 2% BSA in PBS, and after each antibody incubation step the cells were rinsed 3 times for 5 minutes each with PBS. Finally, the coverslips were rinsed with ultrapure water and mounted onto slides using Fluormount-G (Southern Biotech, 0100-01) containing 1% 1,4-diazabicyclo[2.2.2]octane (Sigma, D27802-25MG), an anti-quenching agent.
# (§1) Cultured neurons and brain sections were imaged on either of two microscopes: 1) Nikon Eclipse Ti equipped with a Yokogawa CSU-X1 spinning disk head, 20×0.75 NA CFI Plan Apo, 40×1.3 NA CFI S Fluor and 60×1.4 NA Plan Apo objectives; 405 nm, 488 nm, 561 nm and 640 nm lasers; and a Hamamatsu Flash 4.0 scientific CMOS camera; or 2) EVOS FL imaging system (Invitrogen). Micrographs were captured using either Nikon Elements or EVOS software. CCR-positive cells were counted using the ImageJ cell counter plugin for brain sections (available at an NIH website), and were counted manually using the EVOS microscope for primary neuron cultures. For cultured neurons (FIGS. 1-4, S5 and S2), 4 biological replicates of >300 neurons were counted per condition per experiment.
# To test the hypothesis that neuronal CCR is calcium-dependent we first treated primary mouse cortical neurons with BAPTA-AM, a cell-permeant chelator of intracellular calcium, beginning 30 minutes prior to addition of AβOs to the cultures.
# Accordingly, primary neuron cultures were treated with MK-801, an NMDAR inhibitor that blocks calcium entry through the channel pore, beginning 30 minutes before AβOs were added. […] Otherwise identical experiments were performed using 6-cyano-7-nitroquinoxaline-2,3-dione (CNQX) to block plasma membrane AMPA receptors (FIG. 7), 2-aminoethoxydiphenyl borate (2-ABP) to block ER-associated IP3 receptors and TRP channels (FIG. 8), or dantrolene to inhibit ER-associated ryanodine receptors (FIG. 8).
# [2] = tested on: CaMKII; assay: phospho-activated versus total CaMKII by western blotting of AβO-treated cortical neurons; format: cell-based, mouse; conditions: 10 μM MK-801, 30 minute pre-treatment; 15 minutes after AβO addition
# Method: Samples were resolved on 12% SDS polyacrylamide gels, then transferred at 100 V for 1.75 hours onto 0.22 μm pore size nitrocellulose membranes using a Bio-Rad Mini-PROTEAN Tetra Electrophoresis Cell. Following transfer, blots were rinsed once in tris-buffered saline (TBS), blocked for 30-60 minutes in blocking buffer (LI-COR, 927-50000), sequentially incubated in primary antibodies overnight at 4° C. in antibody buffer (1:1 mix of blocking buffer, and TBST: TBS+0.1% Tween-20), then LI-COR infrared-labeled secondary antibodies for 30 minutes. Blots were rinsed 3 times for 5 minutes each using TBST after the primary antibody or TBS after the secondary antibody. Finally, membranes were scanned using a LI-COR Odyssey imaging station.
# CaMKII is of particular interest, as it can be activated via calcium influx through NMDAR. We thus tested the hypothesis that AβO-mediated calcium influx through NMDAR activates CaMKII as a mediator of CCR. Again, we treated primary neurons with AβOs with or without a 30 minute MK-801 pre-treatment, and collected the cells at various time points from 0-2 hours after AβO stimulation for western blotting with antibodies to phospho-activated and total CaMKII. […] The AβO-mediated activation of CaMKII necessary for CCR [19] is therefore dependent upon calcium influx through NMDAR.
# [3] = cited from earlier work
# [4] = tested on: Tg2576 AD model mice; assay: neuronal CCR in vivo, cyclin D1-positive cortical neurons in brain sections after memantine in drinking water; parameters: species or system mouse; conditions: memantine ~30 mg/kg/day in drinking water from 3 weeks until 2 months of age
# Method: Brain tissue sections were obtained from mice that were transcardially perfused first with 10 ml of phosphate buffer (PB; 0.1 M sodium phosphate, pH 7.6), followed by 10 ml of 4% paraformaldehyde in PB at a flow rate of 1.5 ml/minute. Next, brains were removed and placed in 4% paraformaldehyde in PB for 24 hours, washed 3 times in PBS, incubated in 30% sucrose overnight, and flash frozen using dry ice. Frozen tissue was stored at −80° C. until ready for sectioning to 40 μm thickness on a Microm HM 505 E cryostat. […]
# as §1, with “Micrographs were captured using either Nikon Elements or EVOS software.” left out, “experiment. […]” for “experiment.”
# [5] = 10 μM, 30 minute pre-treatment, 16-18 hours AβOs
compound,measurement,setting,value
"NCCOB(c1ccccc1)c1ccccc1 [2-ABP, 2-aminoethoxydiphenyl borate]",AβO-induced neuronal CCR (cyclin D1-positive neurons),"[1]; 50 μM 2-APB to block IP3 receptors, 18 hours AβOs",none of those inhibitors blocked CCR
"CC(=O)OCOC(=O)CN(CC(=O)OCOC(C)=O)c1ccccc1OCCOc1ccccc1N(CC(=O)OCOC(C)=O)CC(=O)OCOC(C)=O [BAPTA-AM, 1,2-Bis(2-aminophenoxy)ethane-N,N,N′,N′-tetraacetic acid tetrakis(acetoxymethyl ester)]",AβO-induced neuronal CCR (cyclin D1-positive neurons),[1]; [5],prevented
"N#Cc1cc2c(cc1[N+](=O)[O-])=NC(=O)C(=O)N=2 [CNQX, 6-cyano-7-nitroquinoxaline-2,3-dione]",AβO-induced neuronal CCR (cyclin D1-positive neurons),[1]; [5],none of those inhibitors blocked CCR
"C[C@]12N[C@H](Cc3ccccc31)c1ccccc12 [MK-801, (1S,9R)-1-methyl-16-azatetracyclo[7.6.1.02,7.010,15]hexadeca-2,4,6,10,12,14-hexaene]",AβO-induced neuronal CCR (cyclin D1-positive neurons),[1]; [5],blocked the induction of CCR
same,AβO-mediated transient activation of CaMKII (phosphorylated relative to total CaMKII),[2],activation was prevented
CN[C@H](CC(=O)O)C(=O)O [NMDA],induction of CCR in primary neuron cultures,"[1]; 30 second shock of NMDA, no AβOs",induces CCR
O=C1CN(/N=C/c2ccc(-c3ccc([N+](=O)[O-])cc3)o2)C(O)=N1 [dantrolene],AβO-induced neuronal CCR (cyclin D1-positive neurons),"[1]; 20 μM dantrolene to block ryanodine receptors, 18 hours AβOs",none of those inhibitors blocked CCR
"CC12CC3CC(C)(C1)CC(N)(C3)C2 [memantine, 1-amino-3,5-dimethyladamantane hydrochloride]",solubility in water,[3],soluble in water
same,AβO-induced neuronal CCR (cyclin D1-positive neurons),[1]; [5],prevented AβOs from inducing neuronal CCR
same,neuronal CCR along cortical regions (cyclin D1 immunoreactivity),[4]; Tg2576 mice (untreated 8.8%),reduced to WT levels
same,neuronal CCR along cortical regions (cyclin D1 immunoreactivity),[4]; WT mice,1.6%
